The target in the assay is T1, AbXOD (Acinetobacter baumannii xanthine oxidase; "wild-type" = AbXDH Y351V) (Acinetobacter baumannii, UniProt A0A0U3AJU6).
T1 construct: gene xdhB
The note with it: 50 mmol/L Tris/HCl pH 8.5, 40 °C; apparent Km; paper's wild-type carries Y351V in A subunit; substrate inhibition constant; second site.

For `O=c1[nH]c(=O)c2[nH]cnc2[nH]1` [xanthine], the “Ki” value came to 21.11 mM.

(Values after publication PMC9944496 (Food Chemistry: X, 2023).)
